*1 amine or outer side, *2 acyl side, *3 side chain or, on linkers, in order; H or OH if unused. Where a SMILES comes first, the peptide text is derived from it. Bridges are numbered along the chain shown (N, C = ends). [ ]: non-standard residue; d: D form. Trp(2-yl) = O=C([C@H](Cc1c([*:3])[nH]c2ccccc12)N[*:1])[*:2]; Leu(4R-OH,5-OH) = C[C@](O)(CO)C[C@H](N)C(=O)O; cisHyp = O=C(O)[C@@H]1C[C@H](O)CN1
Species: Rattus norvegicus
Assay: Open TG-GATES - Regimen: Daily Repeat
Assay type: toxicity, organism-based, Sprague-Dawley
Set-up: regimen Daily Repeat, gender Male, age 6 weeks
Conditions: in vivo, ip, route intraperitoneal injection; for APTT / Bas / Eos / Fbg / Hb / Ht / Lym / MCH / MCHC / MCV / Mono / Neu / PT / Plat / RBC / Ret / WBC: tissue Blood; for KIDNEY_L / KIDNEY_R / KIDNEY_TOTAL: tissue Kidney; for LIVER: tissue Liver; for A/G / ALP / ALT / AST / BUN / CRE / Ca / Cl / DBIL / GLC / IP / K / LDH / Na / PL / RALB / TBIL / TC / TG / TP / gamma-GTP: tissue Plasma
[1] = 0 mg/kg, 72 h, dose level Control, time 3 day
[2] = 0 mg/kg, […], dose level Control, time 7 day
[3] = 1 mg/kg, 72 h, dose level High, time 3 day
[4] = 1 mg/kg, […], dose level High, time 7 day

For `C[C@@H]1NC(=O)[C@H](C[C@@](C)(O)CO)NC(=O)[C@@H]2Cc3c([nH]c4ccccc34)SC[C@H](NC(=O)[C@@H]([C@H](C)O)NC1=O)C(=O)N1C[C@@H](O)C[C@H]1C(=O)N[C@@H](C)C(=O)N2` [PHALLOIDIN] (cyclo(A[dT]C[cisHyp]A[Trp(2-yl)][Leu(4R-OH,5-OH)]); thioether 3-6), the TERMINAL_BW [1] was 224.8 g, the APTT [1] was 23.1 s and the Bas [1] was 0%. The Eos [1] was 1%, the Fbg [1] was 328 mg/dL and the Hb [1] was 13 g/dL. For the same molecule, the Ht [1] was 40.4%, the Lym [1] was 83% and the MCH [1] was 20.5 pg. It also gave an MCHC [1] of 32.2%, an MCV [1] of 63.5 fL and a Mono [1] of 2.8%. The Neu [1] was 12.6%, the PT [1] was 16.3 s and the Plat [1] was 118.5 x10_4/uL. It also gave an RBC [1] of 636.6 x10_4/ul, a Ret [1] of 6.8% and a WBC [1] of 113.9 x10_2/uL. For the same molecule, the KIDNEY_L [1] was 1 g, the KIDNEY_R [1] was 1 g and the KIDNEY_TOTAL [1] was 1.9 g. It also gave an LIVER [1] of 10.4 g, an A/G [1] of 1.3 and an ALP [1] of 1525.8 IU/L. The ALT [1] was 42 IU/L, the AST [1] was 66.8 IU/L and the BUN [1] was 17.4 mg/dL. The CRE [1] was 0.2 mg/dL, the Ca [1] was 10.8 mg/dL and the Cl [1] was 105.4 meq/L. The DBIL [1] was 0 mg/dL, the GLC [1] was 201.4 mg/dL and the IP [1] was 8.4 mg/dL. The K [1] was 4.7 meq/L, the LDH [1] was 177.6 IU/L and the Na [1] was 140.8 meq/L. For the same molecule, the PL [1] was 139.6 mg/dL, the RALB [1] was 3.1 g/dL and the TBIL [1] was 0 mg/dL. It also gave a TC [1] of 78 mg/dL, a TG [1] of 116.4 mg/dL and a TP [1] of 5.5 g/dL. It also gave a gamma-GTP [1] of 1.6 IU/L, a TERMINAL_BW [2] of 261.3 g and an APTT [2] of 23.5 s. The Bas [2] was 0%, the Eos [2] was 1% and the Fbg [2] was 322.2 mg/dL. For the same molecule, the Hb [2] was 12.9 g/dL, the Ht [2] was 39.5% and the Lym [2] was 80%. It also gave an MCH [2] of 20.4 pg, an MCHC [2] of 32.6% and an MCV [2] of 62.5 fL. The Mono [2] was 1.8%, the Neu [2] was 16.2% and the PT [2] was 15.6 s. It also gave a Plat [2] of 135.8 x10_4/uL, an RBC [2] of 632.2 x10_4/ul and a Ret [2] of 6.8%. It also gave a WBC [2] of 114.9 x10_2/uL, a KIDNEY_L [2] of 1.1 g and a KIDNEY_R [2] of 1.2 g. It also gave a KIDNEY_TOTAL [2] of 2.3 g, an LIVER [2] of 11.8 g and an A/G [2] of 1.2. The ALP [2] was 1235.4 IU/L, the ALT [2] was 36.6 IU/L and the AST [2] was 63.4 IU/L. It also gave a BUN [2] of 18 mg/dL, a CRE [2] of 0.2 mg/dL and a Ca [2] of 10.4 mg/dL. The Cl [2] was 105.8 meq/L, the DBIL [2] was 0 mg/dL and the GLC [2] was 189.8 mg/dL. It also gave an IP [2] of 8.2 mg/dL, a K [2] of 4.4 meq/L and an LDH [2] of 160.4 IU/L. The Na [2] was 142.6 meq/L, the PL [2] was 130.8 mg/dL and the RALB [2] was 2.9 g/dL. The TBIL [2] was 0.008 mg/dL, the TC [2] was 75 mg/dL and the TG [2] was 88.6 mg/dL. For the same molecule, the TP [2] was 5.4 g/dL, the gamma-GTP [2] was 2.8 IU/L and the TERMINAL_BW [3] was 218.4 g. For the same molecule, the APTT [3] was 19.4 s, the Bas [3] was 0% and the Eos [3] was 1.2%. It also gave a Fbg [3] of 270.8 mg/dL, a Hb [3] of 13.5 g/dL and a Ht [3] of 42.3%. For the same molecule, the Lym [3] was 78.2%, the MCH [3] was 20.3 pg and the MCHC [3] was 32%. For the same molecule, the MCV [3] was 63.4 fL, the Mono [3] was 3.2% and the Neu [3] was 16.8%. It also gave a PT [3] of 15.5 s, a Plat [3] of 119.3 x10_4/uL and an RBC [3] of 667.2 x10_4/ul. For the same molecule, the Ret [3] was 6.7%, the WBC [3] was 88.5 x10_2/uL and the KIDNEY_L [3] was 1.1 g. For the same molecule, the KIDNEY_R [3] was 1.1 g, the KIDNEY_TOTAL [3] was 2.1 g and the LIVER [3] was 12 g. For the same molecule, the A/G [3] was 1.1, the ALP [3] was 2057 IU/L and the ALT [3] was 49 IU/L. For the same molecule, the AST [3] was 85.6 IU/L, the BUN [3] was 13.2 mg/dL and the CRE [3] was 0.1 mg/dL. For the same molecule, the Ca [3] was 11.1 mg/dL, the Cl [3] was 105.4 meq/L and the DBIL [3] was 0.066 mg/dL. For the same molecule, the GLC [3] was 168.8 mg/dL, the IP [3] was 8.3 mg/dL and the K [3] was 5.2 meq/L. The LDH [3] was 169.2 IU/L, the Na [3] was 140.4 meq/L and the PL [3] was 153.6 mg/dL. The RALB [3] was 3 g/dL, the TBIL [3] was 0.084 mg/dL and the TC [3] was 107.4 mg/dL. The TG [3] was 24.2 mg/dL, the TP [3] was 5.8 g/dL and the gamma-GTP [3] was 1.6 IU/L. For the same molecule, the TERMINAL_BW [4] was 244 g, the APTT [4] was 17.6 s and the Bas [4] was 0%. It also gave an Eos [4] of 1.2%, a Fbg [4] of 254.4 mg/dL and a Hb [4] of 13.7 g/dL. For the same molecule, the Ht [4] was 41.8%, the Lym [4] was 79.6% and the MCH [4] was 19.6 pg. The MCHC [4] was 32.9%, the MCV [4] was 59.6 fL and the Mono [4] was 3%. The Neu [4] was 15.8%, the PT [4] was 14.8 s and the Plat [4] was 150.8 x10_4/uL. It also gave an RBC [4] of 702.8 x10_4/ul, a Ret [4] of 4.1% and a WBC [4] of 147.5 x10_2/uL. It also gave a KIDNEY_L [4] of 1.1 g, a KIDNEY_R [4] of 1.1 g and a KIDNEY_TOTAL [4] of 2.2 g. It also gave an LIVER [4] of 13.9 g, an A/G [4] of 0.8 and an ALP [4] of 2253.4 IU/L. For the same molecule, the ALT [4] was 86.2 IU/L, the AST [4] was 202.2 IU/L and the BUN [4] was 15 mg/dL. The CRE [4] was 0.1 mg/dL, the Ca [4] was 10.7 mg/dL and the Cl [4] was 104.6 meq/L. The DBIL [4] was 0.3 mg/dL, the GLC [4] was 177.8 mg/dL and the IP [4] was 7.3 mg/dL. It also gave a K [4] of 4.8 meq/L, an LDH [4] of 258.2 IU/L and a Na [4] of 141 meq/L. It also gave a PL [4] of 168 mg/dL, an RALB [4] of 2.6 g/dL and a TBIL [4] of 0.4 mg/dL. The TC [4] was 115.6 mg/dL, the TG [4] was 28.6 mg/dL and the TP [4] was 5.8 g/dL. The gamma-GTP [4] was 3.2 IU/L.
